Source: patent US20080039629A1, “Benzothniazole compositions and their use as ubiquition ligation inhibitors” (RIGEL PHARMACEUTICALS, INC., priority 2003, published 2008)

Biological target: T1, E1 and His-E2 Ubch10 (Homo sapiens, UniProt P22314)
T1 construct: host or cells: E. coli (His-Ubch10); Sf9 insect cells (E1)
T1 sequence (P22314 1-1058): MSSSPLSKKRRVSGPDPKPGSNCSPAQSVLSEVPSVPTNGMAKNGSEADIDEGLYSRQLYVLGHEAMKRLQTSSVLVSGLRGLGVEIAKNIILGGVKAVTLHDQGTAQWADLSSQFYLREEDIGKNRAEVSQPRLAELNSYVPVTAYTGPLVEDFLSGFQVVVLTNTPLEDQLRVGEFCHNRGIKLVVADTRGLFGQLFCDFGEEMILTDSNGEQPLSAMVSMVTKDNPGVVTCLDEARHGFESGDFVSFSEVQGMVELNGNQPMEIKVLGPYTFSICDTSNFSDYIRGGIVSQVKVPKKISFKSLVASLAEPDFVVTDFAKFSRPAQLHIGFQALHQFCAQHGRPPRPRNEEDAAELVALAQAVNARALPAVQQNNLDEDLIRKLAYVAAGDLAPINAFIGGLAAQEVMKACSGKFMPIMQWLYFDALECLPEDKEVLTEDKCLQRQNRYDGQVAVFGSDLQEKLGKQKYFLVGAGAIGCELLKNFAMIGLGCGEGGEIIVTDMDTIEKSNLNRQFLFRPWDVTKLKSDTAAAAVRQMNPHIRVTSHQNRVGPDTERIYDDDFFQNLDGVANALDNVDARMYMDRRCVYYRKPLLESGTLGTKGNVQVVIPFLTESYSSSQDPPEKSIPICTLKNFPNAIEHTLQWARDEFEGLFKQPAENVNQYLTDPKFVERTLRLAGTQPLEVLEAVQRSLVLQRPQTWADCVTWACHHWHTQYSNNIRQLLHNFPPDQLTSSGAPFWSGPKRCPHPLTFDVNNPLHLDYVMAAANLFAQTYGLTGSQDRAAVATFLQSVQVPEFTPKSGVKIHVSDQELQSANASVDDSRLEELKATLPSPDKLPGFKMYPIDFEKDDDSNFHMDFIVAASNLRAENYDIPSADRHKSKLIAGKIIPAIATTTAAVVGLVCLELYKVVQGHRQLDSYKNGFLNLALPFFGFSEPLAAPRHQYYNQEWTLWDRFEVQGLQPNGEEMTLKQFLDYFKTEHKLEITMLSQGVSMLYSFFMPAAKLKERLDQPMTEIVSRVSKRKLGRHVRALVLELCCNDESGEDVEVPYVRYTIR
Assay: E1 to E2 transfer assay, His-E2 Ubch10, 1.0 μM ATP (low ATP)
Format: biochemical
Conditions: Table 5, ATP inhibition properties; inhibition measured using IC50 values
From the text: Biological assays for determining the transfer of ubiquitin from the E1 activating agent to the E2 conjugating agent are described in U.S. patent application Ser. Nos. 09/542,497 and 09/826,312 as well as in the PCT Application WO 01/75145, all of which are incorporated by reference in their entirety. The following assay example illustrates one way by which the ubiquitin ligase inhibitory activity of the compounds of the invention can be assayed. This assay example is not meant to limit in any way the use of the compounds of the invention as ubiquitin ligase inhibitors.
The attachment of a ubiquitin moiety to the E2 conjugating agent was assayed using Flag-ubiquitin that was purified from E. coli, E2 Ubch10 that was purified as a His-Ubch10 from E. coli, and E1 that was purified from Sf9 insect cells (Affiniti Research Products, Exeter, U.K.). The wells of a Nickel-substrate 96-well plate (Pierce Chemical) were blocked with 100 μl of 1% casein/phosphate buffered saline (PBS) for 1 hour at room temperature. The blocked Nickel-substrate plate was then washed three times with 200 μl of PBST (0.1% Tween-20 in PBS). Subsequently, Flag-ubiquitin reaction solution was added to each well so that the final concentration was 62.5 mM Tris pH 7.5, […], 0.75 mM DTT, 1.0 μM ATP (low ATP), and 100 ng Flag-ubiquitin. The final reaction solution volume was fixed to 80 μl with Millipore-filtered water. To this was added the following: a ubiquitin agent inhibitor in 10 μl of DMSO, 10 μl of E1 and His-E2 Ubch10 in 20 mM Tris buffer, pH 7.5, and 5% glycerol so that there was 10 ng/well of E1 and 20 ng/well of His-E2 Ubch10. The reaction was then allowed to proceed at room temperature for 1 hour.
After 1 hour, the wells were washed three times with 200 μl of PBST and the amount of E2-ubiquitin complex was measured. For measuring the amount of the E2-ubiquitin complex, 100 μl of Mouse anti-flag diluted 1:10,000 (Sigma Aldrich Fluka Chemicals, St. Louis, Mo.) and anti-mouse HRP diluted 1:15,000 (Jackson Immunoresearch labs, West Grove, Pa.) in PBST were added to each well and allowed to incubate at room temperature for another hour. The wells were then washed three times with 200 μl of PBST and 100 μl of luminol substrate (⅕ dilution) was added. The luminescence of each well was then measured using a […] to calculate the amount of E2-ubiquitin complex. This procedure was repeated using His-E2 Ubch5C instead of His-E2 Ubch10.
The table below illustrates the inhibitory properties of the pharmaceutical compostions of the invention comprising the compounds listed in the table using the assays described above. Inhibition was measured using IC50 values.

SMILES | UBC10
C=C(C)C(=O)Nc1ccc(C(=O)Nc2nc3ccc(OC)cc3s2)cc1 [Compound 15, 4-methacrylamido-N-(6-methoxybenzo[d]thiazol-2-yl)benzamide] | ++ (++ indicates inhibition at 50 μM or or less)
COc1ccc2nc(NC(=O)c3ccc(N)cc3)sc2c1 [Compound 16, 4-amino-N-(6-methoxybenzo[d]thiazol-2-yl)benzamide] | ++ (++ indicates inhibition at 50 μM or or less)
COc1ccc2nc(NC(=O)c3ccc(NC(C)=O)cc3)sc2c1 [Compound 17, 4-acetamido-N-(6-methoxybenzo[d]thiazol-2-yl)benzamide] | ++ (++ indicates inhibition at 50 μM or or less)
COc1ccc2nc(NC(=O)c3ccc([N+](=O)[O-])cc3Cl)sc2c1 [Compound 18, 2-chloro-N-(6-methoxybenzo[d]thiazol-2-yl)-4-nitrobenzamide] | −− (−− indicates marginal or no inhibition detected with this assay)
COc1ccc2nc(NC(=O)c3ccc(NC(=O)C4CCCCC4)cc3)sc2c1 [Compound 19, 4-(cyclohexanecarboxamido)-N-(6-methoxybenzo[d]thiazol-2-yl)benzamide] | ++ (++ indicates inhibition at 50 μM or or less)
COc1ccc2nc(NC(=O)c3ccc([N+](=O)[O-])c(C)c3)sc2c1 [Compound 20, N-(6-methoxybenzo[d]thiazol-2-yl)-3-methyl-4-nitrobenzamide] | −− (−− indicates marginal or no inhibition detected with this assay)
COc1ccc2nc(NC(=O)c3ccc(C)cc3)sc2c1 [Compound 21, N-(6-methoxybenzo[d]thiazol-2-yl)-4-methylbenzamide] | ++ (++ indicates inhibition at 50 μM or or less)
COc1ccc2nc(NC(=O)c3ccc(C)c([N+](=O)[O-])c3)sc2c1 [Compound 23, N-(6-methoxybenzo[d]thiazol-2-yl)-4-methyl-3-nitrobenzamide] | −− (−− indicates marginal or no inhibition detected with this assay)
COc1ccc2nc(NC(=O)c3ccc([N+](=O)[O-])cc3)sc2c1 [Compound 24, N-(6-methoxybenzo[d]thiazol-2-yl)-4-nitrobenzamide] | ++ (++ indicates inhibition at 50 μM or or less)
COc1ccc2nc(NC(=O)c3ccc4ccccc4c3)sc2c1 [Compound 25, N-(6-methoxybenzo[d]thiazol-2-yl)-2-naphthamide] | −− (−− indicates marginal or no inhibition detected with this assay)
COC(=O)c1ccc(C(=O)Nc2nc3ccc(OC)cc3s2)cc1 [Compound 26, methyl 4-((6-methoxybenzo[d]thiazol-2-yl)carbamoyl)benzoate] | ++ (++ indicates inhibition at 50 μM or or less)
COc1ccc2nc(NC(=O)c3ccc(OC(C)=O)cc3)sc2c1 [Compound 27, 4-((6-methoxybenzo[d]thiazol-2-yl)carbamoyl)phenyl acetate] | ++ (++ indicates inhibition at 50 μM or or less)
COc1ccc2nc(NC(=O)c3ccc(C(C)=O)cc3)sc2c1 [Compound 28, 4-acetyl-N-(6-methoxybenzo[d]thiazol-2-yl)benzamide] | ++ (++ indicates inhibition at 50 μM or or less)
COc1ccc2nc(NC(=O)c3ccc4c(c3)OCCO4)sc2c1 [Compound 29, N-(6-methoxybenzo[d]thiazol-2-yl)-2,3-dihydrobenzo[b][1,4]dioxine-6-carboxamide] | ++ (++ indicates inhibition at 50 μM or or less)
COc1ccc2nc(NC(=O)c3ccc(Cl)cc3)sc2c1 [Compound 30, 4-chloro-N-(6-methoxybenzo[d]thiazol-2-yl)benzamide] | ++ (++ indicates inhibition at 50 μM or or less)
COc1ccc2nc(NC(=O)c3ccc(C#N)cc3)sc2c1 [Compound 31, 4-cyano-N-(6-methoxybenzo[d]thiazol-2-yl)benzamide] | ++ (++ indicates inhibition at 50 μM or or less)
COc1ccc2nc(NC(=O)c3ccccc3)sc2c1 [Compound 32, N-(6-methoxybenzo[d]thiazol-2-yl)benzamide] | ++ (++ indicates inhibition at 50 μM or or less)
COc1ccc(-c2ccc(C(=O)Nc3nc4ccc(OC)cc4s3)cc2)cc1 [Compound 33, 4′-methoxy-N-(6-methoxy-1,3-benzothiazol-2-yl)biphenyl-4-carboxamide] | ++ (++ indicates inhibition at 50 μM or or less)
COc1ccc2nc(NC(=O)c3ccc(S(=O)(=O)N4CCCC4)cc3)sc2c1 [Compound 34, N-(6-methoxybenzo[d]thiazol-2-yl)-4-(pyrrolidin-1-ylsulfonyl)benzamide] | ++ (++ indicates inhibition at 50 μM or or less)
COc1ccc2nc(NC(=O)c3ccc(Oc4ccccc4)cc3)sc2c1 [Compound 35, N-(6-methoxybenzo[d]thiazol-2-yl)-4-phenoxybenzamide] | −− (−− indicates marginal or no inhibition detected with this assay)
COc1ccc(C(=O)Nc2nc3ccc(OC)cc3s2)cc1 [Compound 36, 4-methoxy-N-(6-methoxybenzo[d]thiazol-2-yl)benzamide] | ++ (++ indicates inhibition at 50 μM or or less)
COc1ccc2nc(NC(=O)C3CCCN3S(=O)(=O)c3ccc(C)cc3)sc2c1 (stereo not shown) [Compound 37, N-(6-methoxybenzo[d]thiazol-2-yl)-1-tosylpyrrolidine-2-carboxamide] | −− (−− indicates marginal or no inhibition detected with this assay)
COc1ccc2nc(NC(=O)C3Cc4ccccc4N3)sc2c1 (stereo not shown) [Compound 38, N-(6-methoxybenzo[d]thiazol-2-yl)indoline-2-carboxamide] | ++ (++ indicates inhibition at 50 μM or or less)
COc1ccc2nc(NC(=O)[C@H]3Cc4ccccc4N3)sc2c1 [Compound 39, (R)-N-(6-methoxybenzo[d]thiazol-2-yl)indoline-2-carboxamide] | ++ (++ indicates inhibition at 50 μM or or less)
COc1ccc2nc(NC(=O)Cc3cc4ccccc4n3C)sc2c1 [Compound 40, N-(6-methoxybenzo[d]thiazol-2-yl)-2-(1-methyl-1H-indol-2-yl)acetamide] | ++ (++ indicates inhibition at 50 μM or or less)
COc1ccc2nc(NC(C)=O)sc2c1 [Compound 41, N-(6-methoxybenzo[d]thiazol-2-yl)acetamide] | ++ (++ indicates inhibition at 50 μM or or less)
COc1ccc2nc(NC(=O)C34CC5CC(CC(C5)C3)C4)sc2c1 [Compound 42, N-(6-methoxy-1,3-benzothiazol-2-yl)adamantane-1-carboxamide] | ++ (++ indicates inhibition at 50 μM or or less)
COc1ccc2nc(NC(=O)Cc3ccccc3)sc2c1 [Compound 43, N-(6-methoxybenzo[d]thiazol-2-yl)-2-phenylacetamide] | −− (−− indicates marginal or no inhibition detected with this assay)
